According to patent publication US6911443B2 (Bayer Aktiengesellschaft, priority 2000, dated 2005):

target: T1, human Syk (GST-Syk) (Homo sapiens, UniProt P43405); experiment: Syk tyrosine kinase inhibitory assay; assay type: biochemical; settings: Table 11; read-out: Activity grade
T1 construct: A cDNA fragment encoding human Syk openreading frame was cloned; made in house; host or cells: Sf21 insect cells (baculovirus, transfer vector pAcG2T)
How it was run: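 GST-tagged human Syk from baculovirus/Sf21, 0.65 nM final, with 3 μM biotinylated 30-residue activation-loop peptide and 30 μM ATP in Tris pH 8.0/MgCl2 buffer, 0.25% DMSO; 1 h at room temperature. Phosphopeptide captured on streptavidin, detected by europium-labelled anti-phosphotyrosine 4G10 time-resolved fluorescence.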

Structure (SMILES)	IC50 [nM]
COc1cc(-c2cc3nccn3c(Nc3ccccc3)n2)ccc1OCCCN1CCN(C)CC1 [Example 12-36]	< 500
c1ccc(Nc2nc(-c3ccc4c(c3)OCCO4)cc3nccn23)cc1 [Example 12-21]	500 to 2000
COc1ccc(-c2cc3nccn3c(Nc3ccc(Cl)nc3)n2)cc1OC [Example 12-30]	< 500
COc1ccc(-c2cc3nccn3c(Nc3ccc(CCN4CCOCC4)cc3)n2)cc1OC [Example 12-1]	500 to 2000
COc1ccc(Nc2nc(-c3ccc(N4CCOCC4)c(OC)c3)cc3nccn23)cc1 [Example 12-37]	< 500
COc1ccc(Nc2nc(-c3ccc(N(C)CCCN4CCOCC4)c(OC)c3)cc3nccn23)cc1 [Example 12-55]	< 500
COc1cc(-c2cc3nccn3c(Nc3ccc4cn[nH]c4c3)n2)ccc1N1CCOCC1 [Example 12-59]	< 500
COCCN(C)c1ccc(-c2cc3nccn3c(Nc3ccc(C)cc3)n2)cc1OC [Example 12-42]	< 500
COc1ccc(-c2cc3nccn3c(Nc3ccccc3)n2)cc1OCc1ccccc1 [Example 12-27]	2000 to 10000
COCCN(C)c1ccc(-c2cc3nccn3c(Nc3ccc(Br)cc3)n2)cc1OC [Example 12-46]	< 500
COc1cc(-c2cc3nccn3c(Nc3ccccc3)n2)ccc1OC(C)=O [Example 12-33]	< 500
CCOCCOc1ccc(-c2cc3nccn3c(Nc3ccccc3)n2)cc1OC [Example 12-20]	< 500
CCN(CC)CCOc1ccc(-c2cc3nccn3c(Nc3ccccc3)n2)cc1OC [Example 12-35]	2000 to 10000

same assay, conditions: Table 13; read-out: Activity grade

Structure (SMILES)	IC50 [nM]
COc1ccc(CSc2nc(-c3ccc(OC)c(OC)c3)cc3nccn23)cc1 [Example 14-1]	500 to 2000
COc1ccc(-c2cc3ncnn3c(Sc3ccc(/C=C/C(=O)O)cc3)n2)cc1OC [Example 14-10]	< 500
CCCCCSc1nc(-c2ccc(OC)c(OC)c2)cc2nccn12 [Example 14-26]	500 to 2000
COc1ccc(-c2cc3nccn3c(SCc3ccccc3)n2)cc1OC [Example 14-2]	< 500

same assay, conditions: Table 15; read-out: Activity grade

Structure (SMILES)	IC50 [nM]
COc1ccc(-c2cc3nccn3c(Sc3ccc(S(=O)(=O)N4CCCC4)cc3)n2)cc1OC [Example 16-5]	< 500

same assay, conditions: Table 16; read-out: Activity grade

Structure (SMILES)	IC50 [nM]
CCSc1nc(-c2ccc(OC)c(N(C)CCCN(C)C)c2)cc2nccn12 [Example 17-5]	500 to 2000
CCSc1nc(-c2ccc(NCCCN3CCN(C)CC3)c(OC)c2)cc2nccn12 [Example 17-4]	< 500

same assay, conditions: Table 17; IC50 classes; read-out: Activity grade

Structure (SMILES)	IC50 [nM]
CCN(CC)CCNc1ccc(C(N)=O)c(Nc2nc(-c3ccc(OC)c(OC)c3)cc3nccn23)c1 [Example 12]	< 500
COc1ccc(-c2cc3nccn3c(N(C)c3ccccn3)n2)cc1OC [compound 4]	2000 to 10000
COc1ccc(-c2cc3nccn3c(Sc3ccc(CCC(=O)N(C)C)cc3)n2)cc1OC [compound 17]	< 500
COc1ccc(-c2cc3nccn3c(Nc3ccccc3-c3nnn[nH]3)n2)cc1OC [Example 31]	< 500
COc1ccc(-c2cc3nccn3c(-c3ccccc3)n2)cc1OC [Example 34]	500 to 2000

same assay, conditions: in vitro; compounds as yielded by solid phase synthesis, purity about 40 to 90%

Structure (SMILES)	Activity grade (IC50 class)
CCOC(=O)CCNS(=O)(=O)c1ccc(-c2cc3nccn3c(SCC)n2)cc1OC [Example 2-11]	C-D
CCSc1nc(-c2ccc(S(=O)(=O)N3CCC(C(=O)O)CC3)c(OC)c2)cc2nccn12 [Example 2-10]	C-D
CCOC(=O)CN1CCN(c2nc(-c3ccc(OC)c(OC)c3)cc3nccn23)CC1 [Example 9-73]	C-D
COc1ccc(-c2cc3ncnn3c(Nc3ccc4ncccc4c3)n2)cc1OC [Example 9-18]	C-D

same assay, conditions: in vitro; compounds as yielded by solid phase synthesis, purity about 40 to 90%; read-out: Activity grade (IC50 class)

Structure (SMILES)	IC50 [nM]
CCN(CC)CCNc1ccc(C(N)=O)c(Nc2nc(-c3ccc(OC)c(OC)c3)cc3nccn23)c1 [Example 12]	< 500
COc1ccc(Nc2nc(-c3ccc(OC)c(OC)c3)cc3ncnn23)cc1 [Example 11-15]	< 500
COc1ccc(-c2cc3nccn3c(Nc3ccc(N4CCOCC4)cc3)n2)cc1OC [Example 11-32]	< 500
CCSc1nc(-c2ccc(OC)c(OCc3ccccc3)c2)cc2nccn12 [Example 4-1]	500 to 2000
COc1ccc(-c2cc3nccn3c(Nc3ccccc3C(=O)O)n2)cc1OC [Example 11-77]	< 500
CCSc1cc(-c2cccc([N+](=O)[O-])c2)cc2nccn12 [Example 8-6]	500 to 2000
COc1ccc(-c2cc3nccn3c(NCCc3ccccn3)n2)cc1OC [Example 9-84]	500 to 2000
COc1ccc(-c2cc3nccn3c(Nc3ccc(N(C)C)cc3)n2)cc1OC [Example 11-34]	< 500
COc1ccc(-c2cc3nccn3c(N3CCC(C)CC3)n2)cc1OC [Example 9-62]	2000 to 10000
COc1ccc(-c2cc3nccn3c(Sc3cc(OC)c(OC)c(OC)c3)n2)cc1OC [Example 13-8]	< 500
CCSc1nc(-c2ccc(OC)c(OC)c2)cc2nc(C(=O)OC)cn12 [Example 1-1]	500 to 2000
CCSc1nc(-c2ccc(OCCCN3CCN(C)CC3)c(OC)c2)cc2nccn12 [Example 5-8]	< 500
COc1ccc(-c2cc3nccn3c(Sc3ccc(CCC(=O)O)cc3)n2)cc1O [Example 13-24]	< 500
COc1ccc(-c2cc3nccn3c(N3CCN(C(=O)c4ccco4)CC3)n2)cc1OC [Example 9-46]	2000 to 10000
COc1ccc(-c2cc3nccn3c(Nc3ccc(SCC(=O)O)cc3)n2)cc1OC [Example 11-20]	< 500
COc1ccc(-c2cc3nccn3c(Sc3cccc(CC(O)O)c3)n2)cc1OC [Example 13-20]	< 500
CCSc1nc(-c2ccc(O)c(O)c2)cc2nccn12 [material for Example 6, 4-(5-Ethylsulfanyl-imidazo[1,2-c]pyrimidin-7-yl)-benzene-1,2-diol]	2000 to 10000
CCSc1nc(-c2ccc(OC(=O)OC)c(OC)c2)cc2nccn12 [Example 3-11]	< 500
COc1ccc(-c2cc3nccn3c(Nc3ccc(CCCC(=O)O)cc3C(N)=O)n2)cc1OC [Example 11-105]	< 500
COc1ccc(-c2cc3nccn3c(Sc3ccc(N)cc3)n2)cc1OC [Example 13-4]	< 500
COc1ccc(Nc2nc(-c3ccc(OC)c(OC)c3)cc3nccn23)c(O)c1 [Example 11-93]	< 500
CCSc1nc(-c2ccc(OC)c(OCCCN3CC[C@H](N(C)C)C3)c2)cc2nccn12 [Example 5-5]	500 to 2000
CCN(CC)c1nc(-c2ccc(OC)c(OC)c2)cc2nccn12 [Example 9-56]	500 to 2000
COc1ccc(-c2cc3ncnn3c(Nc3ccc(CCCC(=O)O)cc3C(N)=O)n2)cc1OC [Example 11-106]	< 500
COC(=O)CCc1ccc(Nc2nc(-c3ccc(OC)c(OC)c3)cc3nccn23)cc1 [Example 9-24]	< 500
COc1ccc(Nc2nc(-c3ccc(OCCN4CCOCC4)c(OC)c3)cc3nccn23)cc1 [Example 9-96]	< 500

Structure (SMILES)	IC50 [nM]
COc1ccc(-c2cc3ncnn3c(Nc3cccc(N)n3)n2)cc1OC [Example 9-16]	< 500
COc1ccc(Nc2nc(-c3ccc(OC)c(OC)c3)cc3nccn23)c(C)c1 [Example 11-2]	< 500
COc1ccc(-c2cc3nccn3c(Nc3cccc(N(C)C)c3)n2)cc1OC [Example 11-81]	< 500
CCSc1nc(-c2ccc(OC3CCCCC3)c(OC)c2)cc2nccn12 [Example 3-6]	500 to 2000
COc1ccc(-c2cc3nccn3c(Nc3ccc(N)cc3)n2)cc1OC [Example 11-62]	< 500
COc1ccc(-c2cc3nccn3c(Nc3ccccc3OC(F)(F)F)n2)cc1OC [Example 11-10]	500 to 2000
COc1cc(-c2cc3nccn3c(Sc3ccc(CCC(=O)O)cc3)n2)ccc1O [Example 13-27]	< 500
CCNC(=O)Oc1ccc(-c2cc3nccn3c(SCC)n2)cc1OC [Example 3-9]	500 to 2000
COc1ccc(-c2cc3nccn3c(NC3CCC(C(=O)O)CC3)n2)cc1OC (stereo not drawn) [Example 9-31]	500 to 2000
COC(=O)CCCc1ccc(N(C)c2nc(-c3ccc(OC)c(OC)c3)cc3nccn23)cc1 [Example 11-125]	500 to 2000
CCSc1nc(-c2ccc(C)c(S(=O)(=O)NCCO)c2)cc2nccn12 [Example 2-5]	< 500
CCCNc1nc(-c2ccc(OC)c(OC)c2)cc2nccn12 [Example 9-87]	< 500
CCSc1nc(-c2ccc(OC)c(OC(C)=O)c2)cc2nccn12 [Example 4-7]	< 500
CCSc1nc(-c2ccc(OC)c(O)c2)cc2nccn12 [Example 4-2]	< 500
CCCCOc1ccc(Nc2nc(-c3ccc(OC)c(OC)c3)cc3nccn23)cc1 [Example 11-94]	2000 to 10000
COc1ccc(-c2cc3nccn3c(Nc3cccc(S(=O)(=O)CCO)c3)n2)cc1OC [Example 11-27]	< 500
CCSc1nc(-c2ccc(OC)c(OCCCN3CCN(C)CC3)c2)cc2nccn12 [Example 5-4]	500 to 2000
COC(=O)C(C)(C)Cc1ccc(Nc2nc(-c3ccc(OC)c(OC)c3)cc3nccn23)cc1 [Example 11-4]	< 500
COc1ccc(Nc2nc(-c3ccc(OC)c(OC)c3)cc3nccn23)c(C(N)=O)c1 [Example 11-96]	< 500
CCSc1nc(-c2ccc(OC(C)=O)c(OC)c2)cc2nccn12 [Example 3-7]	< 500
COc1ccc(-c2cc3nccn3c(NCc3ccccc3)n2)cc1OC [Example 9-10]	500 to 2000
COC(=O)C1CCc2cc(Sc3nc(-c4ccc(OC)c(OC)c4)cc4nccn34)ccc2C1 (stereo not drawn) [Example 13-23]	500 to 2000
COc1ccc(-c2cc3ncnn3c(Nc3ccc(CCC(=O)O)cc3)n2)cc1OC [Example 9-20]	< 500
COc1ccc(-c2cc3nccn3c(Nc3ccc(CC#N)cc3)n2)cc1OC [Example 11-63]	< 500
COc1ccc(-c2cc3nccn3c(Nc3ccc(S(=O)(=O)N4CCOCC4)cc3)n2)cc1OC [Example 11-116]	< 500
COc1ccc(-c2cc3nccn3c(Nc3ccc(S(=O)(=O)N4CCCC4)cc3)n2)cc1OC [Example 11-115]	< 500
